Type in all cases: cell-based
One test deals with T1, Wild-type EGFR (Homo sapiens, UniProt P00533).
T1 construct: Assays to measure cellular phosphorylation of endogenous p-EGFR in cell lysates; endogenous in cells; host or cells: LoVo (human colon cell line)
As to the kind of experiment: Wild-type EGFR cellular phosphorylation assay. The settings on record: LoVo human colon cells; endogenous p-EGFR in cell lysates by ELISA; 2 h with compound, then stimulated 100 ng/ml for 10 minutes; read-out: Assay 3 (IC50). Here is the method:
Assay 3: Wild-Type EGFR Cellular Phosphorylation Assay
The human colon cell line LoVo were obtained from the American type Culture Collection. […] Cells were grown in a humidified incubator at 37° C. with 5% CO2. Assays to measure cellular phosphorylation of endogenous p-EGFR in cell lysates were carried out according to the protocol described in the R&D Systems DuoSet IC Human Phospho-EGF R ELISA (R&D Systems catalogue number #DYC1095). 40 μL of cells were seeded (15000 cells/well) in growth medium in Corning black, clear-bottomed 384-well plates and incubated at 37° C. with 5% CO2 overnight. […] Plates were incubated for a further 2 h then stimulated with 100 ng/ml for 10 minutes and following aspiration of medium, 40 μL 1× lysis buffer was added to each well. Greiner black high bind 384-well plates were coated with capture antibody and then blocked with 3% BSA. […] Following aspiration and washing of the plates with PBS, 20 μL of detection antibody were added and incubated for 2 hours. […] The data obtained with each compound was exported into a suitable software package (such as Origin) to perform curve fitting analysis.

For the next test, the target named is T2, L858R/T790M EGFR (Homo sapiens, UniProt P00533, L858R/T790M).
T2 construct: Assays to measure cellular phosphorylation of endogenous p-EGFR in cell lysates; endogenous in cells; host or cells: NCI-H1975 (human lung cell line)
T2 sequence (P00533 25-1210 T790M/L858R): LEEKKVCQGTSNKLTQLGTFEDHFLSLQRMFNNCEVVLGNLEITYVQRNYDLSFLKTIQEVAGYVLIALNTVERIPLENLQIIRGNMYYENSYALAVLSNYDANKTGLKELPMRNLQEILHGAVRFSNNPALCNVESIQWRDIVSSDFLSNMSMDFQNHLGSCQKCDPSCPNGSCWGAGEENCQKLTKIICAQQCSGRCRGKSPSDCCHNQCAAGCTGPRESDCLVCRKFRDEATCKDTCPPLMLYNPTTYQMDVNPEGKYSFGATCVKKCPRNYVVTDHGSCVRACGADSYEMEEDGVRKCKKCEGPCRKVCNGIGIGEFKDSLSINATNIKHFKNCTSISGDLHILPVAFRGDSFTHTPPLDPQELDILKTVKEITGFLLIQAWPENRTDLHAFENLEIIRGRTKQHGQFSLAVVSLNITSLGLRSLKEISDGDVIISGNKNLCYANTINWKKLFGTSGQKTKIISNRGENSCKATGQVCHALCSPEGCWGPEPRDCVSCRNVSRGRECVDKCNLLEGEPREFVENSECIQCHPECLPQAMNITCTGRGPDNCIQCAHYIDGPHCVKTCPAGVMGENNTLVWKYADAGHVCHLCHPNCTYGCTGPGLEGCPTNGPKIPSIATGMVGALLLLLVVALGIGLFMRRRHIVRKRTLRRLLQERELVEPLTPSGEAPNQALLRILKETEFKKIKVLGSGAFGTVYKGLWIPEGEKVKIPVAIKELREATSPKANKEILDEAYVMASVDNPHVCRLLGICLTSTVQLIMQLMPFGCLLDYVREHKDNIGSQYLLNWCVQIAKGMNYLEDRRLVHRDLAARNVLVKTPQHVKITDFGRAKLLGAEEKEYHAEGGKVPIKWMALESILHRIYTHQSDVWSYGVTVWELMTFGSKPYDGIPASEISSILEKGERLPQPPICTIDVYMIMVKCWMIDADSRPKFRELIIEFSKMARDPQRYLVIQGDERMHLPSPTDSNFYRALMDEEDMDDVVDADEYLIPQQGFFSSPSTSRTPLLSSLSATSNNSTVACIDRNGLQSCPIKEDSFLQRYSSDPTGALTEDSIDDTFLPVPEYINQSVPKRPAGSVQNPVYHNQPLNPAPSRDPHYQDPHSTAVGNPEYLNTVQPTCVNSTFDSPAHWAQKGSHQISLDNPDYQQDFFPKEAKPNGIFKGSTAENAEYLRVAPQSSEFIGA
As to the kind of experiment: L858R/T790M EGFR (double mutant) cellular phosphorylation assay. The settings on record: NCI-H1975 human lung cells; endogenous p-EGFR in cell lysates by ELISA; 2 h with compound. Here is the method:
Assay 2: L858R/T790M EGFR (Double Mutant) Cellular Phosphorylation Assay
The human lung cell lines NCI-H1975 were obtained from the American type Culture Collection. […] Cells were grown in a humidified incubator at 37° C. with 5% CO2.
Assays to measure cellular phosphorylation of endogenous p-EGFR in cell lysates were carried out according to the protocol described in the R&D Systems DuoSet IC Human Phospho-EGF R ELISA (R&D Systems catalogue number #DYC1095).
40 μL of cells were seeded (10000 cells/well) in growth medium in Corning black, clear-bottomed 384-well plates and incubated at 37° C. with 5% CO2 overnight. […] Plates were incubated for a further 2 h and following aspiration of medium, 40 μL 1× lysis buffer was added to each well. Greiner black high bind 384-well plates were coated with capture antibody and then blocked with 3% BSA. Following removal of block, 15 μL of lysate were transferred to the Greiner black high bind 384-well plates and incubated for 2 hours. Following aspiration and washing of the plates with PBS, 20 μL of detection antibody were added and incubated for 2 hours. […] 20 μL QuantaBlu stop solution were added to plates and fluorescence read on an Envision plate reader using
The data obtained with each compound was exported into a suitable software package (such as Origin) to perform curve fitting analysis.
Background: An ELISA detects its analyte on a solid surface through an enzyme-linked reagent.

A further test has as its target T3, Exon19 deletion EGFR (Homo sapiens, UniProt P00533, DEL746-750).
T3 construct: Assays to measure cellular phosphorylation of endogenous p-EGFR in cell lysates; endogenous in cells; host or cells: PC9 (human lung cell line)
Nature of the test: Exon19 deletion EGFR (activating single mutant) cellular phosphorylation assay. The settings on record: PC9 human lung cells (Exon 19 deletion EGFR); endogenous p-EGFR in cell lysates by ELISA; 2 h with compound; read-out: Assay 1 (IC50). Here is the method: Assay 1: Exon19 Deletion EGFR (Activating Single Mutant) Cellular Phosphorylation Assay
The human lung cell line PC9 (Exon 19 deletion EGFR) were obtained from the American type Culture Collection. […] Cells were grown in a humidified incubator at 37° C. with 5% CO2. Assays to measure cellular phosphorylation of endogenous p-EGFR in cell lysates were carried out according to the protocol described in the R&D Systems DuoSet IC Human Phospho-EGF R ELISA (R&D Systems catalogue number #DYC1095). 40 μL of cells were seeded (10000 cells/well) in growth medium in Corning black, clear-bottomed 384-well plates and incubated at 37° C. with 5% CO2 overnight. […] Plates were incubated for a further 2 h, then following aspiration of medium, 40 μL 1× lysis buffer was added to each well. Greiner black high bind 384-well plates were coated with capture antibody and then blocked with 3% BSA. Following removal of block, […], of lysate were transferred to the Greiner black high bind 384-well plates and incubated for 2 hours. Following aspiration and washing of the plates with PBS, 20 μL of detection antibody were added and incubated for 2 hours. […] The data obtained with each compound was exported into a suitable software package (such as Origin) to perform curve fitting analysis.

T3 sequence (P00533 with tags, fused parts or gaps DEL746-750): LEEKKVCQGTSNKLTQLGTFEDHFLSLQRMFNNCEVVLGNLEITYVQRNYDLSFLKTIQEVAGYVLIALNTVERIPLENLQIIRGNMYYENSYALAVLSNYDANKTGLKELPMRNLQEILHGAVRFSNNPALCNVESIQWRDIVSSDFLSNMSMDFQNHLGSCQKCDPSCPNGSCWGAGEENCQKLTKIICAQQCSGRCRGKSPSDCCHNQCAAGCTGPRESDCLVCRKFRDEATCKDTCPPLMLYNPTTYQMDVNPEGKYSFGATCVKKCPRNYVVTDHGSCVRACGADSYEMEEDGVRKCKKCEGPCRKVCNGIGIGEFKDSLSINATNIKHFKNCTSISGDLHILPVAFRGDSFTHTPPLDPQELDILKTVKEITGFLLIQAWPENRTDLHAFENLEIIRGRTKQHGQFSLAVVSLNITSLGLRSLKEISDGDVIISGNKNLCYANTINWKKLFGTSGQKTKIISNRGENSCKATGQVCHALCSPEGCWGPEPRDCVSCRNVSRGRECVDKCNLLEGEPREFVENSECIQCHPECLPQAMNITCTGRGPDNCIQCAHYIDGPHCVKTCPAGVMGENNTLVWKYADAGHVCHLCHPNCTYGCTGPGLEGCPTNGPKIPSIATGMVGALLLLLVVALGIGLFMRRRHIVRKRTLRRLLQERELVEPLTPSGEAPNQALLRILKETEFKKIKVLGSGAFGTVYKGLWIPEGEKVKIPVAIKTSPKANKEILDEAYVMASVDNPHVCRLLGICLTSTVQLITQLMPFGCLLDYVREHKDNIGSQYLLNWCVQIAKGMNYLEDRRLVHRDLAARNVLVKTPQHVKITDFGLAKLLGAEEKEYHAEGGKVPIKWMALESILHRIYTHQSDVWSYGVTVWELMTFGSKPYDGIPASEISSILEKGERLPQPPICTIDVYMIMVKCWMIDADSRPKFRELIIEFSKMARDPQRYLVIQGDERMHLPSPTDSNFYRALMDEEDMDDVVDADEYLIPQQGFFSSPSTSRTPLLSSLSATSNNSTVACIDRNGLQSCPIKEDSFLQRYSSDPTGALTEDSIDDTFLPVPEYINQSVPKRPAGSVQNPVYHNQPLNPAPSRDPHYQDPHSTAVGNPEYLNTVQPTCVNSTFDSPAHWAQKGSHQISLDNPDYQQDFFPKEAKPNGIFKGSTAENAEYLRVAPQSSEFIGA
T1 sequence (P00533 25-1210): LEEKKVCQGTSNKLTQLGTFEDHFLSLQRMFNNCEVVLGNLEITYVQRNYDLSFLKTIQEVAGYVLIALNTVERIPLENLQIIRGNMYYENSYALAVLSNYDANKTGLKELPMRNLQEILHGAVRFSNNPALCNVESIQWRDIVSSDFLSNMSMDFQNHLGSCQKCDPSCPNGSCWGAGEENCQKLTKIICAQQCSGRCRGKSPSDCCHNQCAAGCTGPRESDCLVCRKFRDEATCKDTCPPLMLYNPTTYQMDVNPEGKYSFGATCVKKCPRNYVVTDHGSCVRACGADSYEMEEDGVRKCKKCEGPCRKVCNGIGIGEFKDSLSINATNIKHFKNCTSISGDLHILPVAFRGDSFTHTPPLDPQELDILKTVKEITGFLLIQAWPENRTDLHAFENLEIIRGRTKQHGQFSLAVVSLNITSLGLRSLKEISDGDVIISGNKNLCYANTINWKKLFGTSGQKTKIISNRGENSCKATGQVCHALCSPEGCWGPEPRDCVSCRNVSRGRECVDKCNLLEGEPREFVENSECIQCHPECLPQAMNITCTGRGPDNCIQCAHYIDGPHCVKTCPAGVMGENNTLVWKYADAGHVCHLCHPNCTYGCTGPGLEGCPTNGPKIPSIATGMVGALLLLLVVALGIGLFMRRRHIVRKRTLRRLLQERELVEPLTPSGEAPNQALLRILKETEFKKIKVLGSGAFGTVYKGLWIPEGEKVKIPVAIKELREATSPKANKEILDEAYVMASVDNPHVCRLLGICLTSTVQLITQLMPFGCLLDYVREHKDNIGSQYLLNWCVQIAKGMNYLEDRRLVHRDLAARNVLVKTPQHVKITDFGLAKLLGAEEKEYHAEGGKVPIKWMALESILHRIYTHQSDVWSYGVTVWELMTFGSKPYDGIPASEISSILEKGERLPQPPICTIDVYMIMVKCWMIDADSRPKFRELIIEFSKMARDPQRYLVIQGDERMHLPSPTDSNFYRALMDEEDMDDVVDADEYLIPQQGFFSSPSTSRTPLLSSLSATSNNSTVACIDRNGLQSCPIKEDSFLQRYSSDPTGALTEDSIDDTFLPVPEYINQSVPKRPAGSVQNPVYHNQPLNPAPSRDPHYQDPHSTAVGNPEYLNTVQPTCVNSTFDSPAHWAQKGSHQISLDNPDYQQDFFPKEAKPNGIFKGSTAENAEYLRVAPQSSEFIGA

The term IC50 denotes the concentration needed to halve the response being measured. Take `C=CC(=O)Nc1cc(Nc2ncc(C)c(-c3cnn4ccccc34)n2)c(OC)cc1C1=CCN(C)CC1` [Example 1, N-{4-Methoxy-2-[1-methyl-3,6-dihydro-2H-pyridin-4-yl]-5-[(5-methyl-4-pyrazolo[1,5-a]pyridin-3-ylpyrimidin-2-yl)amino]phenyl}prop-2-enamide]: the IC50 at Wild-type EGFR came to 474 nM; on L858R/T790M EGFR it was 4.96 nM; at Exon19 deletion EGFR, 7.61 nM.
In the same order, the values of `C=CC(=O)Nc1cc(Nc2ncc(Cl)c(-c3c[nH]c4ccccc34)n2)c(OC)cc1C1=CCN(C)CC1` [Example 2, N-(5-{[5-Chloro-4-(1H-indol-3-yl)pyrimidin-2-yl]amino}-4-methoxy-2-[1-methyl-3,6-dihydro-2H-pyridin-4-yl]phenyl)prop-2-enamide] are 41.2 nM, 1.5 nM and 1.29 nM.
Taken in the same sequence, the figures for `C=CC(=O)Nc1cc(Nc2ncc(C)c(-c3c[nH]c4ccccc34)n2)c(OC)cc1N1CCN(C)CC1` [Example 3, N-(5-{[4-(1H-Indol-3-yl)-5-methylpyrimidin-2-yl]amino}-4-methoxy-2-[4-methylpiperazin-1-yl]phenyl)prop-2-enamide] were 522 nM, 15.5 nM and 10.5 nM.
Take `C=CC(=O)Nc1cc(Nc2ncc(Cl)c(-c3cnn4ccccc34)n2)c(OC)cc1N1CC[C@@H](N(C)C)C1` [Example 4, N-{5-[(5-Chloro-4-pyrazolo[1,5-a]pyridin-3-ylpyrimidin-2-yl)amino]-2-[(3R)-3-dimethylaminopyrrolidin-1-yl]-4-methoxyphenyl}prop-2-enamide]: the IC50 came to 510 nM on Wild-type EGFR, 1.6 nM at L858R/T790M EGFR and 12.7 nM at Exon19 deletion EGFR.
As to `C=CC(=O)Nc1cc(Nc2ncc(Cl)c(-c3cnn4ccccc34)n2)c(OC)cc1N(C)CCN(C)C` [Example 6, N-{5-[(5-Chloro-4-pyrazolo[1,5-a]pyridin-3-ylpyrimidin-2-yl)amino]-2-[2-dimethylaminoethyl-methylamino]-4-methoxyphenyl}prop-2-enamide], the values for the concentration for half-maximal inhibition (IC50) at Wild-type EGFR, on L858R/T790M EGFR and at Exon19 deletion EGFR were 196 nM, 0.669 nM and 2.18 nM, respectively.
`C=CC(=O)Nc1cc(Nc2ncc(Cl)c(-c3cnn4ccccc34)n2)c(OC)cc1N1CC[C@@H]2CN(C)C[C@@H]21` [Example 7, N-{2-[(3aR,6aR)-5-Methyl-2,3,3a,4,6,6a-hexahydropyrrolo[3,2-c]pyrrol-1-yl]-5-[(5-chloro-4-pyrazolo[1,5-a]pyridin-3-ylpyrimidin-2-yl)amino]-4-methoxyphenyl}prop-2-enamide]: the IC50 amounted to 161 nM on Wild-type EGFR, 0.682 nM at L858R/T790M EGFR and 3.26 nM at Exon19 deletion EGFR.
`C=CC(=O)Nc1cc(Nc2ncc(Cl)c(-c3cnn4ccccc34)n2)c(OC)cc1N1CC2(CCCN2C)C1` [Example 8, N-{5-[(5-Chloro-4-pyrazolo[1,5-a]pyridin-3-ylpyrimidin-2-yl)amino]-4-methoxy-2-[5-methyl-2,5-diazaspiro[3.4]octan-2-yl]phenyl}prop-2-enamide]: the 50% inhibitory concentration (IC50) at Wild-type EGFR came to 1170 nM; on L858R/T790M EGFR, 5.48 nM; on Exon19 deletion EGFR it was 22.4 nM.
Taken in the same sequence, the figures for `C=CC(=O)Nc1cc(Nc2ncc(Cl)c(-c3cnn4ccccc34)n2)c(OC)cc1C1=CCN(C)CC1` [Example 9, N-{5-[(5-Chloro-4-pyrazolo[1,5-a]pyridin-3-ylpyrimidin-2-yl)amino]-4-methoxy-2-[1-methyl-3,6-dihydro-2H-pyridin-4-yl]phenyl}prop-2-enamide] were 874 nM, 2.82 nM and 9.96 nM.
In the same order, the values of `C=CC(=O)Nc1cc(Nc2ncc(Cl)c(-c3cnn4ccccc34)n2)c(OC)cc1N1CCN(CC(=O)N(C)C)CC1` [Example 10, N-{5-[(5-Chloro-4-pyrazolo[1,5-a]pyridin-3-ylpyrimidin-2-yl)amino]-2-[4-(2-dimethylamino-2-oxoethyl)piperazin-1-yl]-4-methoxyphenyl}prop-2-enamide] are 8430 nM, 40 nM and 73.8 nM.
Regarding `C=CC(=O)Nc1cc(Nc2ncc(Cl)c(-c3cnn4ccccc34)n2)c(OC)cc1N1CCN(C(=O)[C@H](C)N)CC1` [Example 11, (S)—N-{2-[4-(2-Aminopropanoyl)piperazin-1-yl]-5-[(5-chloro-4-pyrazolo[1,5-a]pyridin-3-ylpyrimidin-2-yl)amino]-4-methoxyphenyl}prop-2-enamide], the figures for the IC50 on Wild-type EGFR, at L858R/T790M EGFR and at Exon19 deletion EGFR were 1600 nM, 18.7 nM and 28.5 nM, respectively.
As for `C=CC(=O)Nc1cc(Nc2ncc(Cl)c(-c3cnn4ccccc34)n2)c(OC)cc1N1CC[C@H](N(C)C)C1` [Example 12, N-{5-[(5-Chloro-4-pyrazolo[1,5-a]pyridin-3-ylpyrimidin-2-yl)amino]-2-[(3S)-3-dimethylaminopyrrolidin-1-yl]-4-methoxyphenyl}prop-2-enamide], the IC50 on Wild-type EGFR was 1390 nM; at L858R/T790M EGFR, 5.82 nM; at Exon19 deletion EGFR, 36.1 nM.
Take `C=CC(=O)Nc1cc(Nc2ncc(C#N)c(-c3cnn4ccccc34)n2)c(OC)cc1N1CCN(C)CC1` [Example 14, N-{5-[(5-Cyano-4-pyrazolo[1,5-a]pyridin-3-ylpyrimidin-2-yl)amino]-4-methoxy-2-[4-methylpiperazin-1-yl]phenyl}prop-2-enamide]: the IC50 at Wild-type EGFR came out at 12500 nM; on L858R/T790M EGFR, 19.1 nM; at Exon19 deletion EGFR, 53.3 nM.
In the same order, the values of `C=CC(=O)Nc1cc(Nc2nccc(-c3c[nH]c4ccccc34)n2)c(OC)cc1N1CCN(C)CC1` [Example 15, N-(5-{[4-(1H-Indol-3-yl)pyrimidin-2-yl]amino}-4-methoxy-2-{4-methylpiperazin-1-yl}phenyl)prop-2-enamide] are 1070 nM, 55.2 nM and 14 nM.
For `C=CC(=O)Nc1cc(Nc2nccc(-c3cnn4ccccc34)n2)c(OC)cc1N1CCN(C)CC1` [Example 16, N-[4-Methoxy-2-(4-methylpiperazin-1-yl)-5-[(4-pyrazolo[1,5-a]pyridin-3-ylpyrimidin-2-yl)amino]phenyl]prop-2-enamide], the results for the 50% inhibitory concentration (IC50) on Wild-type EGFR, at L858R/T790M EGFR and at Exon19 deletion EGFR were over 18900 nM, 70.5 nM and 144 nM, respectively.
On to `C=CC(=O)Nc1cc(Nc2ncc(Cl)c(-c3c[nH]c4ccccc34)n2)c(OC)cc1N1CCN(C)CC1` [Example 17, N-(5-{[5-Chloro-4-(1H-indol-3-yl)pyrimidin-2-yl]amino}-4-methoxy-2-{4-methylpiperazin-1-yl}phenyl)prop-2-enamide], for which the concentration for half-maximal inhibition (IC50) at Wild-type EGFR was found to be 772 nM; at L858R/T790M EGFR it was 5.64 nM; at Exon19 deletion EGFR, 23.4 nM.
As for `C=CC(=O)Nc1cc(Nc2ncc(C)c(-c3cn(C)c4ccccc34)n2)c(OC)cc1N1CCN(C)CC1` [Example 18, N-(4-Methoxy-5-{[5-methyl-4-(1-methylindol-3-yl)pyrimidin-2-yl]amino}-2-{4-methylpiperazin-1-yl}phenyl)prop-2-enamide], the IC50 is 2700 nM at Wild-type EGFR, 31.4 nM at L858R/T790M EGFR and 66.4 nM at Exon19 deletion EGFR.

The values are drawn from patent publication US11524951B2, “2-(2,4,5-substituted-anilino)pyrimidine compounds” (AstraZeneca AB, priority 2011, dated 2022).
